Article PMC7655722 (Organic letters, 2020)
Read-outs that look alike come from different tables or passages of the source.

Columns and labels:
in vitro = format: cell-based; conditions: human
MCF10A = assay: cells; format: cell-based; conditions: Homo sapiens, MCF-10A, read-out: IC50, cell viability
MDA-MB-231 = assay: cells; format: cell-based; conditions: for IC50: Homo sapiens
[1] = system: chronic lymphocytic leukemia (CLL); conditions: chronic lymphocytic leukemia (CLL) ref 8; cited from earlier work
P335 = P335 ref 6; cited from earlier work
glioblastoma Hs683 = glioblastoma Hs683 ref 9, 10; cited from earlier work
[2] = system: cancer stem cells (CSCs) in MDA-MB-231 cell line; conditions: MDA-MB-231 cell line ref 12; cited from earlier work
[3] = system: stem-like cells with epithelial-mesenchymal transition (EMT) properties; conditions: cited from earlier work

Structure (SMILES)	IC50 (in vitro) [nM]	IC50 (MCF10A) [nM]	IC50 (MDA-MB-231; MDA-MB-231, read-out: IC50, cell viability) [nM]	IC50 (MDA-MB-231; MDA-MB-231, read-out: cytotoxicity (IC50) as quoted in text) [nM]	selectivity between cancer vs non-cancer cell line (MDA-MB-231; MDA-MB-231 vs MCF-10A)	IC50 [1] [nM]	IC50 (P335) [nM]	IC50 (glioblastoma Hs683) [nM]	effect on CD44/CD24-positive population [2]	induction of cell death in stem-like cells with EMT properties [3]
CC(C)=C[C@H]1C[C@H](C)[C@]2(CC[C@]3(C)C[C@H]4[C@H](C(=O)C[C@@]4(C)O)/C(C=O)=C\C[C@H]32)O1 [OpA, ophiobolin A]	~200	198 ± 76	69 ± 24	~69	~ 3 fold	1	63	620	significantly reducing the CD44/CD24-positive population	specifically induces cell death
CC(C)=CCC[C@H](C)[C@@]1(O)CC[C@]2(C)C[C@H]3[C@H](C(=O)C[C@@]3(C)O)/C(C=O)=C\C[C@H]21 [compound 2]									significantly reducing the CD44/CD24-positive population	
